Results: ChEMBL document CHEMBL3044799, “Biological activity of the succinate dehydrogenase inhibitor fluopyram against Botrytis cinerea and fungal baseline sensitivity” (Pest Manag Sci, 2012)
Values after ≈ are worked out from the molar mass of the structure shown. Active and inactive are the calls of the source. The calls are words filed in the database; no cut-off is given here.

How the values were obtained:
Botrytis cinerea [1] = assay: Protective antifungal activity against Botryotinia fuckeliana inoculated in fungicide-applied strawberry fruit assessed as disease severity measuring lesion diameter at 10 ug AI/ml applied 48 hr prior inoculation; assay type: functional
Botrytis cinerea [2] = assay: Protective antifungal activity against Botryotinia fuckeliana inoculated in fungicide-applied strawberry fruit assessed as disease severity measuring lesion diameter at 10 ug AI/ml applied 24 hr prior inoculation; assay type: functional
Botrytis cinerea [3] = assay: Curative antifungal activity against Botryotinia fuckeliana inoculated in strawberry fruit assessed as disease severity measuring lesion diameter at 100 ug AI/ml applied 24 hr post-inoculation; assay type: functional
Botrytis cinerea [4] = assay: Protective antifungal activity against Botryotinia fuckeliana inoculated in fungicide-applied strawberry fruit assessed as disease control efficacy at 50 ug AI/ml applied 96 hr prior-inoculation relative to control; assay type: functional
Botrytis cinerea [5] = assay: Curative antifungal activity against Botryotinia fuckeliana inoculated in strawberry fruit assessed as disease severity measuring lesion diameter at 50 ug AI/ml applied 48 hr post-inoculation; assay type: functional
Botrytis cinerea [6] = assay: Curative antifungal activity against Botryotinia fuckeliana inoculated in strawberry fruit assessed as disease severity measuring lesion diameter at 1 ug AI/ml applied 48 hr post-inoculation; assay type: functional
Botrytis cinerea [7] = assay: Curative antifungal activity against Botryotinia fuckeliana inoculated in strawberry fruit assessed as disease control efficacy at 10 ug AI/ml applied 48 hr post-inoculation relative to control; assay type: functional
Botrytis cinerea [8] = assay: Protective antifungal activity against Botryotinia fuckeliana inoculated in fungicide-applied strawberry fruit assessed as disease severity measuring lesion diameter at 50 ug AI/ml applied 24 hr prior inoculation; assay type: functional
Botrytis cinerea [9] = assay: Antifungal activity against Botryotinia fuckeliana obtained from grape isolate assessed as inhibition of spore germ tube growth; assay type: functional, organism-based
Botrytis cinerea [10] = assay: Curative antifungal activity against Botryotinia fuckeliana inoculated in strawberry fruit assessed as disease severity measuring lesion diameter at 1 ug AI/ml applied 24 hr post-inoculation; assay type: functional
Botrytis cinerea [11] = assay: Protective antifungal activity against Botryotinia fuckeliana inoculated in fungicide-applied strawberry fruit assessed as disease severity measuring lesion diameter at 50 ug AI/ml applied 96 hr prior-inoculation; assay type: functional
Botrytis cinerea [12] = assay: Curative antifungal activity against Botryotinia fuckeliana inoculated in strawberry fruit assessed as disease severity measuring lesion diameter at 100 ug AI/ml applied 96 hr post-inoculation; assay type: functional
Botrytis cinerea [13] = assay: Protective antifungal activity against Botryotinia fuckeliana inoculated in fungicide-applied strawberry fruit assessed as disease control efficacy at 1 ug AI/ml applied 48 hr prior inoculation relative to control; assay type: functional
Botrytis cinerea [14] = assay: Curative antifungal activity against Botryotinia fuckeliana inoculated in strawberry fruit assessed as disease severity measuring lesion diameter at 10 ug AI/ml applied 24 hr post-inoculation; assay type: functional
Botrytis cinerea [15] = assay: Antifungal activity against Botryotinia fuckeliana grown on water agar assessed as inhibition of germ tube growth at 1 ug/ml after 10 days; assay type: functional, organism-based
Botrytis cinerea [16] = assay: Curative antifungal activity against Botryotinia fuckeliana inoculated in strawberry fruit assessed as disease control efficacy at 100 ug AI/ml applied 48 hr post-inoculation relative to control; assay type: functional
Botrytis cinerea [17] = assay: Protective antifungal activity against Botryotinia fuckeliana inoculated in fungicide-applied strawberry fruit assessed as disease severity measuring lesion diameter at 50 ug AI/ml applied 48 hr prior inoculation; assay type: functional
Botrytis cinerea [18] = assay: Protective antifungal activity against Botryotinia fuckeliana inoculated in fungicide-applied strawberry fruit assessed as disease severity measuring lesion diameter at 100 ug AI/ml applied 96 hr prior-inoculation; assay type: functional
Botrytis cinerea [19] = assay: Protective antifungal activity against Botryotinia fuckeliana inoculated in fungicide-applied strawberry fruit assessed as disease severity measuring lesion diameter at 1 ug AI/ml applied 48 hr prior inoculation; assay type: functional
Botrytis cinerea [20] = assay: Curative antifungal activity against Botryotinia fuckeliana inoculated in strawberry fruit assessed as disease control efficacy at 1 ug AI/ml applied 96 hr post-inoculation relative to control; assay type: functional
Botrytis cinerea [21] = assay: Curative antifungal activity against Botryotinia fuckeliana inoculated in strawberry fruit assessed as disease control efficacy at 1 ug AI/ml applied 48 hr post-inoculation relative to control; assay type: functional
Botrytis cinerea [22] = assay: Antifungal activity against Botryotinia fuckeliana grown on PDA medium assessed as inhibition of mycelial growth at 10 ug/ml after 10 days; assay type: functional, organism-based
Botrytis cinerea [23] = assay: Protective antifungal activity against Botryotinia fuckeliana inoculated in fungicide-applied strawberry fruit assessed as disease control efficacy at 1 ug AI/ml applied 96 hr prior-inoculation relative to control; assay type: functional

O=C(NCCc1ncc(C(F)(F)F)cc1Cl)c1ccccc1C(F)(F)F [FLUOPYRAM]
Activity (Botrytis cinerea [1]): 5.5 mm
Activity (Botrytis cinerea [2]): 4.2 mm
Activity (Botrytis cinerea [3]): 3.9 mm
Efficacy (Botrytis cinerea [4]): 79.2%
Activity (Botrytis cinerea [5]): 3.2 mm
Activity (Botrytis cinerea [6]): 6.9 mm
Efficacy (Botrytis cinerea [7]): 81.2%
Activity (Botrytis cinerea [8]): 1.1 mm
EC50 (Botrytis cinerea [9]): 0.13 µg/mL (≈ 0.328 µM)
Activity (Botrytis cinerea [10]): 8.8 mm
Activity (Botrytis cinerea [11]): 3.9 mm
Activity (Botrytis cinerea [12]): 7 mm
Efficacy (Botrytis cinerea [13]): 54.3%
Activity (Botrytis cinerea [14]): 5.7 mm
growth inhibition (GI) (Botrytis cinerea [15]): Active
Efficacy (Botrytis cinerea [16]): 92.2%
Activity (Botrytis cinerea [17]): 2.3 mm
Activity (Botrytis cinerea [18]): 0.7 mm
Activity (Botrytis cinerea [19]): 8.6 mm
Efficacy (Botrytis cinerea [20]): 37.2%
Efficacy (Botrytis cinerea [21]): 63.3%
growth inhibition (GI) (Botrytis cinerea [22]): inactive
Efficacy (Botrytis cinerea [23]): 53.6%
